Tests used:
Type in all cases: biochemical
ROCK2 [1] = biological target: T1, ROCK2 (Homo sapiens (Human), UniProt O75116); experiment: ROCK2 ADP-Glo kinase enzyme inhibition assay
Method: (§1) We measured ROCK and PKA kinase enzyme activity inhibition by compounds using commercially available ROCK1 (Promega Corporation, cat #V9581), ROCK2 (Promega, cat #V4045), and PKA kinase (Promega, cat #V4247) ADP-Glo™ assay kits. ADP-Glo™ Kinase Assay is a luminescent ADP detection assay that provides a homogeneous method to measure kinase activity by quantifying the amount of ADP produced during a kinase reaction. The assay is performed in two steps. First, after the kinase reaction, an equal volume of ADP-Glo™ Reagent is added to terminate the kinase reaction and deplete the remaining ATP. Second, the Kinase Detection Reagent is added to simultaneously convert ADP to ATP and allow the newly synthesized ATP to be measured using a luciferase/luciferin reaction. The light generated is measured using a luminometer. A complete protocol is included with the kits and is also available at the Promega website. The assay is briefly described below. • 1. Diluted enzyme, substrate, ATP, and compounds (inhibitors) in Kinase Buffer (40 mM Tris, 7.5, 20 mM MgCl2, 0.1 mg/ml BSA, 50 μM DTT). • 2. Added 1 μl of inhibitor, 2 μl of enzyme and 2 μl of substrate/ATP mix to the wells of 384-well low volume nonbinding assay plate A series of three-fold dilution of inhibitor was prepared and assayed for each inhibitor. • 3. Incubated at room temperature for 60 minutes. • 4. Added 5 μl of ADP-Glo™ Reagent. • 5. Incubated at room temperature for 60 minutes. • 6. Added 10 μl of Kinase Detection Reagent • 7. Incubated at room temperature for 30 minutes.
(§2) Recorded luminescence (Integration time 1 second) using a plate-based luminometer.
Calculated Percent Enzyme Activity: First subtract the signal of the negative control (no enzyme and no inhibitor) from each sample's signal. Then use the mean relative light units (RLU) values for the 0% kinase activity (neither inhibitor nor enzyme) and the 100% kinase activity (no compound) to calculate the other percent enzyme activities remaining in the presence of the different dilutions of inhibitor.
Inhibitor stock solutions of 10 mM are made in DMSO and stored at −20° C. Dilutions were made in assay buffer immediately before use.
Target sequence in this assay (O75116 whole entry): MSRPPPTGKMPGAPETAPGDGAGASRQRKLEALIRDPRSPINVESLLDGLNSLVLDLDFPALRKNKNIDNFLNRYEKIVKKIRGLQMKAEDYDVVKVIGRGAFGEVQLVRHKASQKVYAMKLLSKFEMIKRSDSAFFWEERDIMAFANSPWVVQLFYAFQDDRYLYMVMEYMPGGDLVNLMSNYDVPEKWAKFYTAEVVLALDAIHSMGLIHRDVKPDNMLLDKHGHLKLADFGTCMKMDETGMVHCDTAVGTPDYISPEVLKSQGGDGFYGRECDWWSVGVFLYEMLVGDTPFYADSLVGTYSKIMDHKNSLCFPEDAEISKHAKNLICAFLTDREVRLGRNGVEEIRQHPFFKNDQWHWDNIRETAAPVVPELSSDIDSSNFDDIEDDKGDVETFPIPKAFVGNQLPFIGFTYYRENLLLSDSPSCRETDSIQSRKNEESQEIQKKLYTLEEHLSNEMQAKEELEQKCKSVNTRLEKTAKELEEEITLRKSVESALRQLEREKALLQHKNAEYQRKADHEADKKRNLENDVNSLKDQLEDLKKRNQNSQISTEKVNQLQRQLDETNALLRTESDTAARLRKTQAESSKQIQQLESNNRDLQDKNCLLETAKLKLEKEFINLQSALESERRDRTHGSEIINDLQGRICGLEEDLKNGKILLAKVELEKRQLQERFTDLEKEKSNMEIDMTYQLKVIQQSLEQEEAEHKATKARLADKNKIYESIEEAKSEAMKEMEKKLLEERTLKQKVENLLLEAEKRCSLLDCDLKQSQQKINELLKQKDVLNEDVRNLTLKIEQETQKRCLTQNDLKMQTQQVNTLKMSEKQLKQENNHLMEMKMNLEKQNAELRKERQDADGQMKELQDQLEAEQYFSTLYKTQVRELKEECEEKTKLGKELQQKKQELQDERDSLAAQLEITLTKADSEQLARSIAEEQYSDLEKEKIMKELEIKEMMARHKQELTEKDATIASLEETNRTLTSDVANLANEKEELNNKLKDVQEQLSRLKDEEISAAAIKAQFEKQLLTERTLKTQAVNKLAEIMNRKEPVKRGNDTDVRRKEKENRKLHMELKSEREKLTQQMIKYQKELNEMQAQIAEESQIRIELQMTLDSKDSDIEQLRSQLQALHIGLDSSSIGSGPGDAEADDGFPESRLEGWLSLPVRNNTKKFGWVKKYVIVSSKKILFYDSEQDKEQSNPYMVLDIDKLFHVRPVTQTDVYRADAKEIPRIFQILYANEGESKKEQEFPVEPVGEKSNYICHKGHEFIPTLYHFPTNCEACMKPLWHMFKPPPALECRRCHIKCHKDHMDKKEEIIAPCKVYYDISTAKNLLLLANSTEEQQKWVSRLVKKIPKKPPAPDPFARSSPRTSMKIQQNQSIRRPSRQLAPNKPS

PKA [2] = biological target: T2, PKA (Homo sapiens (Human), UniProt P17612); experiment: PKA ADP-Glo kinase enzyme inhibition assay; conditions: read-out: PKAIC50
Method: as §1, with “Added 1 μl of inhibitor, 2 μl of enzyme and 2 μl of substrate/ATP mix to the wells of 384-well low volume nonbinding assay plate A series of three-fold dilution of inhibitor was prepared and assayed for each inhibitor. • 3. Incubated at room temperature for 60 minutes. • 4. Added 5 μl of ADP-Glo™ Reagent. • 5. Incubated at room temperature for 60 minutes. • 6. Added 10 μl of Kinase Detection Reagent • 7. Incubated at room temperature for 30 minutes.” left out
as §2
Calculated Percent Enzyme Activity: First subtract the signal of the negative control (no enzyme and no inhibitor) from each sample's signal. […]

MRCKa = MRCKa (Homo sapiens (Human), UniProt Q5VT25); experiment: Radioisotope filter binding kinase assay; conditions: 10 uM ATP, read-out: IC50 estimates, MRCKa
Method: (§3) Experiment was conducted by Absorption Systems. […] The radioisotope filter binding assay is considered the gold standard for kinase profiling. The assay directly detects the true product without the use of modified substrates, coupling enzymes, or detection antibodies. Compounds are incubated with kinase, substrate, cofactors, and radioisotope-labeled ATP (^33P-Y-ATP). The reaction mixtures are then spotted onto filter papers, which bind the radioisotope-labeled catalytic product. Unreacted phosphate is removed via washing of the filter papers.
(§4) • Prepare kinase-specific substrate in freshly prepared Base Reaction Buffer (20 mM Hepes (pH 7.5), 10 mM MgCl2, 1 mM EGTA, 0.02% Brij35, 0.02 mg/ml BSA, 0.1 mM Na3VO4, 2 mM DTT, 10 µM ATP, and 1% DMSO). • Add kinase enzyme into the substrate solution and gently mix. • Add compounds in DMSO into the kinase reaction mixture by Acoustic technology (Echo550; nanoliter range), incubate for 20 minutes at room temperature. • Add ^33P-ATP (specific activity 10 μCi/μl)) into the reaction mixture to initiate the reaction. • Incubate kinase reaction for 2 hours at room temperature. • Spot reactions onto P81 ion exchange paper. • Detect kinase activity by filter-binding method.

PKA [3] = biological target: T2, PKA; experiment: Radioisotope filter binding kinase assay; conditions: 10 uM ATP, read-out: IC50 estimates, PKA
Method: as §3, §4

PKCtheta = PKCtheta (Homo sapiens (Human), UniProt Q04759); experiment: Radioisotope filter binding kinase assay; conditions: 10 uM ATP, read-out: IC50 estimates, PKCtheta
Method: as §3, §4

ROCK1 = ROCK1 (Homo sapiens (Human), UniProt Q13464); experiment: Radioisotope filter binding kinase assay; conditions: 10 uM ATP, read-out: IC50 estimates, ROCK1
Method: as §3, §4

ROCK2 [4] = biological target: T1, ROCK2; experiment: Radioisotope filter binding kinase assay; conditions: 10 uM ATP, read-out: IC50 estimates, ROCK2
Method: as §3, §4
Target sequence in this assay (O75116 whole entry, species assumed): as the sequence (O75116 whole entry) above

MRCKa, sequence (Q5VT25 whole entry): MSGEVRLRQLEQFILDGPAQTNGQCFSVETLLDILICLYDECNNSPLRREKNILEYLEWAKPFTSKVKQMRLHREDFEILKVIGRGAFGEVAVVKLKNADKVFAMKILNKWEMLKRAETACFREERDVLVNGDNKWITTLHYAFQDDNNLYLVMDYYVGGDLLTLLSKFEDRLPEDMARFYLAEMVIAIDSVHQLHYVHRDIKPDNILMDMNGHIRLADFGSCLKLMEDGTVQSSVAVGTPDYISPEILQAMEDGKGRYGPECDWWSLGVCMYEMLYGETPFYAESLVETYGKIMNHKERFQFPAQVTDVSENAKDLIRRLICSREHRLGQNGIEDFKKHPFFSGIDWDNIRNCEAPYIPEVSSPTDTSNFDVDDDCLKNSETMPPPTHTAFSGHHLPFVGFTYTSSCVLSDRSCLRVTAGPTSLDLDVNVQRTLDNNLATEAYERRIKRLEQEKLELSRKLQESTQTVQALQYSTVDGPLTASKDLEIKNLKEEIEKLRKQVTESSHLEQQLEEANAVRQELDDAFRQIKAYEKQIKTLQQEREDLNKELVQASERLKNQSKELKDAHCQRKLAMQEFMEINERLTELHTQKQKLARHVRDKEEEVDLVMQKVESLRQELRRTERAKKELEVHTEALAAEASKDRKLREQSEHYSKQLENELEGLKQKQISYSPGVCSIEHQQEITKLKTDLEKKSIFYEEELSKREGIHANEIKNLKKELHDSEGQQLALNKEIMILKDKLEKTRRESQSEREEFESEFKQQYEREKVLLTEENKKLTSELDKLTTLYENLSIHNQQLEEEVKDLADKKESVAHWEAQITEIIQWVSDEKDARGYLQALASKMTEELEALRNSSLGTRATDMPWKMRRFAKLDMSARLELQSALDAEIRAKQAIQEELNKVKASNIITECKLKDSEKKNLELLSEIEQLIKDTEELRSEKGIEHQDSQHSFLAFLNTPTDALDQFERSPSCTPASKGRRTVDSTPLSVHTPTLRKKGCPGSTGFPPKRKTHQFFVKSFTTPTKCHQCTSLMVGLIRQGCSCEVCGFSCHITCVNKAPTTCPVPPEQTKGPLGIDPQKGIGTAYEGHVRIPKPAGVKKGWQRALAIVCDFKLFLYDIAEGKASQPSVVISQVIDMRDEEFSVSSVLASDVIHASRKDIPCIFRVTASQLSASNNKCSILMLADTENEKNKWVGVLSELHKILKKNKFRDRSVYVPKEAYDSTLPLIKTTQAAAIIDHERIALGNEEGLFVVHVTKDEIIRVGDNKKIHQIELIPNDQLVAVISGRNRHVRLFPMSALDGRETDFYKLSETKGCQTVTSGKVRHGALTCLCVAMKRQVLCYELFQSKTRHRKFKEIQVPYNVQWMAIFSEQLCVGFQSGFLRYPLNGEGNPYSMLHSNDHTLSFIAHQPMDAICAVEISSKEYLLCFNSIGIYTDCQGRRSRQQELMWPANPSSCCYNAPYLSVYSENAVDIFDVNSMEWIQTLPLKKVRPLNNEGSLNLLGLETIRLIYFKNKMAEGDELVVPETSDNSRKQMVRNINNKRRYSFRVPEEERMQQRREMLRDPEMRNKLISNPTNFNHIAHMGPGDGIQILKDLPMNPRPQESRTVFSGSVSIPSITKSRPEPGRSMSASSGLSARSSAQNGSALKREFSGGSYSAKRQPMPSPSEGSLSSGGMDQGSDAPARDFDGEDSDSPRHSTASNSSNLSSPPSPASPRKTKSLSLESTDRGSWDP
ROCK1, sequence (Q13464 whole entry, species assumed): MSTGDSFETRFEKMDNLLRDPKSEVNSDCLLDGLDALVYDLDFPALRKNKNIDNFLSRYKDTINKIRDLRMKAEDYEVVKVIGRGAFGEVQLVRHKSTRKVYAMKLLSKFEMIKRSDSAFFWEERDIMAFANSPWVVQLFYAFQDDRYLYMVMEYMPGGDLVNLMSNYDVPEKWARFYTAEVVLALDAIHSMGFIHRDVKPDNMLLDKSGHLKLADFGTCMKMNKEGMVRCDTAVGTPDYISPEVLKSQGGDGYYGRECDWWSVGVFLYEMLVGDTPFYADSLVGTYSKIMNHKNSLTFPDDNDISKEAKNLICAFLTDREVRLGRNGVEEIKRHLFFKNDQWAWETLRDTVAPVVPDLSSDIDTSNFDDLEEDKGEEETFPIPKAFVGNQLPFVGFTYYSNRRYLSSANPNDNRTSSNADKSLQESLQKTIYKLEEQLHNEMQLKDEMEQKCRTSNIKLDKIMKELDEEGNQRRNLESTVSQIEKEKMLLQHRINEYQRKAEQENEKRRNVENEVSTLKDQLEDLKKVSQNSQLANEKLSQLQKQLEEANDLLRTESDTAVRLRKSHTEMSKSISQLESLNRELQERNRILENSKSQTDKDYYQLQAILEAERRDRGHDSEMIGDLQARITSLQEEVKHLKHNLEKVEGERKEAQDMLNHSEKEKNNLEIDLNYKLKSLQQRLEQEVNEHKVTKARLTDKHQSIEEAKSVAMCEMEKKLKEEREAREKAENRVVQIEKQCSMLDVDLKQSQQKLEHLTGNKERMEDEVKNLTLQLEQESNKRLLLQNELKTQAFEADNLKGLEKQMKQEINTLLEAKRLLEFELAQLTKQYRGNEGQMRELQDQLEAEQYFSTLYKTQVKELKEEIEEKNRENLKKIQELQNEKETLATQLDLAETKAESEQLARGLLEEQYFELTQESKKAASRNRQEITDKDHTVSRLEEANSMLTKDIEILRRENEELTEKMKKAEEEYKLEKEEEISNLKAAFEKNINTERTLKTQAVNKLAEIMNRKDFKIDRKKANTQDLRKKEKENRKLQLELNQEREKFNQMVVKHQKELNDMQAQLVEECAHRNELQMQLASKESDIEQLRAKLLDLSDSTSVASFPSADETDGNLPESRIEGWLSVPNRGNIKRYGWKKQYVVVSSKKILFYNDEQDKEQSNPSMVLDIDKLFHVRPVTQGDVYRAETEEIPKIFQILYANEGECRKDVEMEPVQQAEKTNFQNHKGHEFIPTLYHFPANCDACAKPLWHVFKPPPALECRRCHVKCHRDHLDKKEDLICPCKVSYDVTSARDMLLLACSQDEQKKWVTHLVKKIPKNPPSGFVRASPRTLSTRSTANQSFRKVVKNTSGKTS

Question: NCC(C(=O)Nc1ccc2cnccc2c1)c1ccc(CO)cc1 (racemic) [Netarsudil-M1-racemate•2HCl, Netarsdil-M1-(racemic), reference compound] was tested. Which IC50 (ROCK2 [1]; Exp #2, read-out: ROCK2 IC50(Exp #2)) did it give?
Answer: The IC50 was 66 nM.

Question: What about the IC50 (ROCK2 [1]; Exp #3, read-out: ROCK2 IC50(Exp #3)) of the same molecule?
Answer: The IC50 was 15 nM.

Question: What about the IC50 (PKA [2]) of the same molecule?
Answer: Its IC50 is 23 nM.

Question: What about the IC50 (MRCKa) of the same molecule?
Answer: Its IC50 is > 10000 nM.

Question: And the IC50 (PKA [3])?
Answer: Its IC50 is 12 nM.

Question: And the IC50 (PKCtheta)?
Answer: The IC50 was 5130 nM.

Question: And the IC50 (ROCK1)?
Answer: Its IC50 is 15 nM.

Question: And the IC50 (ROCK2 [4])?
Answer: The IC50 was 6 nM.

— patent US12479866B2, “Boron-containing rho kinase inhibitors” (Percipiad, Inc., priority 2019, dated 2025)
